Data on 18 compounds can be found in patent publication US20080051419A1, “AMINE DERIVATIVES USEFUL AS ANTICANCER AGENTS” (PFIZER INC., priority 2006, published 2008).

In this experiment the target is T1, Akt1 (Homo sapiens, UniProt P31749, S473D).
T1 construct: The version of Akt used in these studies lacks the pleckstrin homology (PH) domain
Kind of experiment: Akt1 kinase assay, fluorescence polarization (IMAP). It counts as biochemical. The essentials:
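His-tagged Akt1 lacking the PH domain, Thr308-prephosphorylated, 1.5 ng per reaction, with 4 μM ATP and 40 nM TAMRA-Crosstide (solution concentrations) in Tris pH 7.5/MgCl2/DTT buffer. Incubated 30 min at ambient temperature; IMAP fluorescence polarization read (544/615 nm). IC50 after subtraction of no-enzyme background.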
A general note: Polarisation of emitted light reports the rotation of a fluorescent probe.

The mark [1] stands for this setting: Table 1, concentration bins, read-out: Concentration Range at which exemplary compounds of formula I inhibit Akt kinase activity.
[2] abbreviates: average Akt kinase activity (IC50), read-out: Avg Akt kinase, μM (50% inhibition).
The mark [3] stands for this setting: Table 3, read-out: Avg Akt kinase, μM (50% inhibition).

The structures appear in SMILES notation. Where two headings read alike, the source gives them in different places.

T1 sequence (P31749 118-480 S473D limits assumed, species assumed): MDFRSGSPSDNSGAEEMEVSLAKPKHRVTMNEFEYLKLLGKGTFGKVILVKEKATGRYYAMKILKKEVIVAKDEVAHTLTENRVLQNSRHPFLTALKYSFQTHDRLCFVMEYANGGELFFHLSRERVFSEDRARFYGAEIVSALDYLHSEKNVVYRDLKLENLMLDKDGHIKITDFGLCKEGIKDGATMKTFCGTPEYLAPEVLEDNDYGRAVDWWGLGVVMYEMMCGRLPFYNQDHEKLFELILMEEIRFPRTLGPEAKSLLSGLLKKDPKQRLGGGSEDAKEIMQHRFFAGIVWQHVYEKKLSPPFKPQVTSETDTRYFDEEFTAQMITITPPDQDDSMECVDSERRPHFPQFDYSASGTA

As to `Cc1c[nH]c2ncnc(N3CC[C@](N)(CNC(=O)c4ccc(F)cc4F)C3)c12` [Example 97, N-{[(3S)-3-amino-1-(5-methyl-7H-pyrrolo[2,3-d]pyrimidin-4-yl)pyrrolidin-3-yl]methyl}-2,4-difluorobenzamide], the IC50 is 0.00025 to 0.0025 µM under setting [1] and 0.000979 µM under setting [2].
For the compound `CCc1c[nH]c2ncnc(N3CC[C@](N)(CNC(=O)c4ccccc4)C3)c12` [Example 110, N-{[(3S)-3-amino-1-(5-ethyl-7H-pyrrolo[2,3-d]pyrimidin-4-yl)pyrrolidin-3-yl]methyl}benzamide], the IC50 is 0.00251 to 0.01 µM under setting [1] and 0.0073 µM under setting [2].
`CCc1c[nH]c2ncnc(N3CC[C@](N)(CNC(=O)c4ccccc4Cl)C3)c12` [Example 128]: the IC50 is 0.0101 to 0.1 µM under setting [1] and 0.0147 µM under setting [2].
Regarding `CCc1c[nH]c2ncnc(N3CCC(N)(COc4cccc(C(F)(F)F)c4)C3)c12` (stereo not drawn) [Example 64], the IC50 by setting is: under setting [1], 0.0101 to 0.1 µM; (Table 4, read-out: Avg Akt kinase, μM (50% inhibition)) 0.0215 µM.
Consider `Cc1c[nH]c2ncnc(N3CC[C@](N)(CNC4=NC(=O)CC=C4)C3)c12` [Example 56, 6-({[(3S)-3-amino-1-(5-methyl-7H-pyrrolo[2,3-d]pyrimidin-4-yl)pyrrolidin-3-yl]methyl}amino)pyridin-2(3H)-one], for which the IC50 by setting is: under setting [1], 0.0101 to 0.1 µM; under setting [3], 0.014 µM.
Take `Cc1c[nH]c2ncnc(N3CCC(N)(CNc4ccccc4Oc4ccccc4)C3)c12` (stereo not drawn) [Example 20, 1-(5-methyl-7H-pyrrolo[2,3-d]pyrimidin-4-yl)-3-{[(2-phenoxyphenyl)amino]methyl}-pyrrolidin-3-amine]: the IC50 reads like this: under setting [1], 0.0101 to 0.1 µM; under setting [3], 0.0155 µM.
On the same counts, the results for `NC1(CNc2cccc(Oc3ccccc3)c2)CCN(c2ncnc3[nH]cc(Cl)c23)C1` (stereo not drawn) [Example 6, 1-(5-Chloro-7H-pyrrolo[2,3-d]pyrimidin-4-yl)-3-[(3-phenoxy-phenylamino)-methyl]-pyrrolidin-3-ylamine] are 0.0101 to 0.1 µM and 0.0134 µM.
In the same order, the values of `Cc1c[nH]c2ncnc(N3CCC(N)(CNc4cccc5c4CCCC5)C3)c12` (stereo not drawn) [Example 35, 1-(5-methyl-7H-pyrrolo[2,3-d]pyrimidin-4-yl)-3-[(5,6,7,8-tetrahydronaphthalen-1-ylamino)methyl]pyrrolidin-3-amine] are 0.00251 to 0.01 µM and 0.00797 µM.
Consider `Cc1c[nH]c2ncnc(N3CCC(N)(CNc4ccccc4C(=O)NCc4ccccc4)C3)c12` (stereo not drawn) [Example 27, 2-({[3-amino-1-(5-methyl-7H-pyrrolo[2,3-d]pyrimidin-4-yl)pyrrolidin-3-yl]methyl}amimo)-N-benzylbenzamide], for which the IC50 under setting [1] fell in the range of 0.101 to 10 µM and the IC50 under setting [3] came to 5.29 µM.
Consider `N[C@]1(CNC(=O)c2ccc(F)c(F)c2)CCN(c2ncnc3[nH]cc(Cl)c23)C1` [Example 129, N-{[(3S)-3-amino-1-(5-chloro-7H-pyrrolo[2,3-d]pyrimidin-4-yl)pyrrolidin-3-yl]methyl}-3,4-difluorobenzamide], for which the IC50 is 0.00251 to 0.01 µM under setting [1] and 0.00334 µM under setting [2].
In the same order, the values of `N[C@]1(CNC(=O)c2cc(F)ccc2F)CCN(c2ncnc3[nH]cc(Cl)c23)C1` [Example 106, N-{[(3S)-3-amino-1-(5-chloro-7H-pyrrolo[2,3-d]pyrimidin-4-yl)pyrrolidin-3-yl]methyl}-2,5-difluorobenzamide] are 0.00025 to 0.0025 µM and 0.0025 µM.
On the same counts, the results for `CCc1c[nH]c2ncnc(N3CC[C@](N)(CNC(=O)c4ccccc4F)C3)c12` [Example 98, N-{[(3S)-3-amino-1-(5-ethyl-7H-pyrrolo[2,3-d]pyrimidin-4-yl)pyrrolidin-3-yl]methyl}-2-fluorobenzamide] are 0.00025 to 0.0025 µM and 0.000683 µM.
For the compound `N#Cc1c[nH]c2ncnc(N3CC[C@](N)(CNC(=O)c4cccc(F)c4F)C3)c12` [Example 90], the IC50 under setting [1] fell in the range of 0.0101 to 0.1 µM and the IC50 under setting [2] stood at 0.0395 µM.
With `NC1(CNc2cccc(C(F)(F)F)c2)CCN(c2ccnc3[nH]ccc23)C1` (stereo not drawn) [Example 42, 1-(1H-pyrrolo[2,3-b]pyridin-4-yl)-3-({[3-(trifluoromethyl)phenyl]amino}-methyl)pyrrolidin-3-amine], the IC50 under setting [1] was 0.0101 to 0.1 µM and the IC50 under setting [3] came to 0.0354 µM.
As to `CCc1c[nH]c2ncnc(N3CC[C@](N)(CNC(=O)c4cccc(F)c4)C3)c12` [Example 105, N-{[(3S)-3-amino-1-(5-ethyl-7H-pyrrolo[2,3-d]pyrimidin-4-yl)pyrrolidin-3-yl]methyl}-3-fluorobenzamide], the IC50 runs as follows: under setting [1], 0.0101 to 0.1 µM; under setting [2], 0.0107 µM.
In the case of `N[C@]1(CNC(=O)c2cccc(F)c2)CCN(c2ncnc3[nH]cc(Cl)c23)C1` [Example 104, N-{[(3S)-3-amino-1-(5-chloro-7H-pyrrolo[2,3-d]pyrimidin-4-yl)pyrrolidin-3-yl]methyl}-3-fluorobenzamide], the IC50 under setting [1] was 0.00251 to 0.01 µM and the IC50 under setting [2] amounted to 0.00674 µM.
Take `Cc1c[nH]c2ncnc(N3CC[C@](N)(CNC(=O)c4ccc(Cl)cc4F)C3)c12` [Example 102, N-{[(3S)-3-amino-1-(5-methyl-7H-pyrrolo[2,3-d]pyrimidin-4-yl)pyrrolidin-3-yl]methyl}-4-chloro-2-fluorobenzamide]: the IC50 runs as follows: under setting [1], 0.0101 to 0.1 µM; under setting [2], 0.014 µM.
For the compound `N[C@]1(CNC(=O)c2ccc(Cl)cc2)CCN(c2ncnc3[nH]cc(Cl)c23)C1` [Example 70, N—(((S)-3-amino-1-(5-chloro-7H-pyrrolo[2,3-d]pyrimidinechlorobenzamide (70)-4-yl)pyrrolidin-3-yl)methyl)-4], the IC50 under setting [1] is 0.00251 to 0.01 µM and the IC50 under setting [2] was 0.00544 µM.
